Assay results: PubChem BioAssay (NCI)
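Grown in 96-well plates, cells were treated for 48 hours with each compound at five concentrations. Insufficient inhibition: endpoint recorded as highest concentration tested. TGI marks complete inhibition of growth.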

What was measured:
Test in all cases: NCI tumour cell line growth inhibition, 48 h
[1] = tested on: A498 renal
[2] = tested on: BT-549 breast
[3] = tested on: HOP-92 NSCLC
[4] = tested on: MDA-MB-231 breast
[5] = tested on: PC-3 prostate
[6] = tested on: HOP-18 NSCLC
[7] = tested on: MALME-3M melanoma

SMILES: Cc1cn(C2CC(n3cc(Cn4ccc(=O)[nH]c4=O)nn3)C(CO)O2)c(=O)[nH]c1=O (configuration not stated)
- TGI [1]: > 100 µM
- TGI [2]: > 100 µM
- TGI [3]: > 100 µM
- TGI [4]: > 100 µM
- TGI [5]: > 100 µM

SMILES: C=C(/C=C/C=C(\C)CCC=C(C)C)[C@@H]1CC[C@]2([C@H](CCCO)/C(=C(/C)C=O)CC[C@]2(C)O)[C@@H]1O
- TGI [6]: 60.4 µM
- TGI [7]: 29.8 µM
